{
  "source": "patent US20050095196A1",
  "about": "“Method for using potassium channel agonists for delivering a medicant to an abnormal brain region and/or a malignant tumor” (priority 2003, published 2005)",
  "key": {"[1]": {"test_system": "blood-tumor barrier of RG2 glioma tissue", "assay": "Unidirectional transfer constant Ki for [14C]AIB across the blood-tumor barrier, quantitative autoradiography after intracarotid infusion", "format": "in vivo, Wistar rats", "conditions": "for unidirectional transport constant Ki for [14C]α-aminoisobutyric acid (AIB) across the blood-tumor barrier: RG2 glioma-bearing Wistar rats, intracarotid 7.5 μg kg^−1 min^−1 for 15 minutes", "excerpt": "Malignant Cell Line and Tumor Implantation. A rat glioma cell line, RG2, was used for implantation of experimental brain tumors in Wistar rats. The techniques for RG2 cell propagation and maintenance in tissue culture have been described (Sugita, M. and Black, K. L., Cyclic GMP-specific phosphodiesterase inhibition and intracarotid bradykinin infusion enhances permeability into brain tumors, Cancer Res. 58(5):914-20 [1998]; Inamura et al. [1994]; Nakano, S. et al., Increased brain tumor microvessel permeability after intracarotid bradykinin infusion is mediated by nitric oxide, Cancer Res. 56(17):4027-31 [1996]). Briefly, RG2 cells derived from a rat glioma are kept frozen until use, then are thawed and maintained in a monolayer culture in F12 medium with 10% calf serum.\nThe Wistar rats (approximately 140-160 g body weight) were anesthetized with intra-peritoneal ketarnine (50 mg/kg), and glial cells (1×10^5) were implanted into the right hemisphere, but not the contralateral hemisphere, by intracerebral injection suspended in 5 μL F12 medium,(1-2% methylcellulose) by.a Hamilton syringe. The implantation coordinates were 3-mm lateral to the bregrna and 4.5 mm deep to the dural surface.\nIntracarotid Infusion of Potassium Channel Activators. Seven days after implantation of RG2 cells, the rats were anesthetized as described above and prepared for permeability studies. Animals were infused with either NS-1619 (a selective large conductance Ca^2+- activated K^+ channel activator; […]; 5% (v/v) ethanol. Ethanol (25% [v/v]) was used to dissolve. the potassium channel agonists before.dilution in PBS. For blood volume studies, 5 and 14 minutes after the start of the intracarotid infusion of potassium channel agonist compounds, [^14C] Dextran (100 μCi/kg; Dupont-New England Nuclear Co., Boston, Mass.) was injected as an intravenous bolus and maintained for 1 minute and 10 minutes to obtain two different time points. For regional permeability studies, 5 minutes after the start of the intracarotid infusion of vasoactive compounds, 100 μCi/kg of [^14C]α-aminoisobutyric acid (Dupont-New England Nuclear Colo., Boston, Mass.) was injected as an intravenous bolus. A peristaltic withdrawal pump was used to withdraw femoral arterial blood at a constant rate of 0.083 mL/min immediately after the injection of the tracer to determine serum radioactivity. Fifteen minutes after the intracarotid infusion, rat decapitated and the brain rapidly removed and frozen for quantitative autoradiography.\nUnidirectional Transport Constant (Ki). The unidirectional transfer constant Ki for [^14C]α-aminoisobutyric acid was measured in normal tissue and tumor tissue as an indicator of permeability across the blood-tumor and blood-brain barriers. Quantitative autbradiography was. used to obtain Ki values (μL g^−1min^−1). The initial rate for blood-to-brain transfer was calculated using a previously described equation. (Ohno, K, et al., Lower limits of cerebrovascular permeability to nonelectrolytes in the conscious rat, Am. J. Physiol. 235(3):H299-307, [1978]; Inamura, T., et al., Bradykinin selectively opens blood-tumor barrier in experimental brain rumors, J. Cereb. Flow Metab. 14(5):862-70 [1994]). Quantitative data were analyzed using, two group t-test and two-group Fisher's-exact test of equal proportions or equal means (equal numbers) at 90% power requires a minimum of 6 animals in each group to achieve statistical significance. Multiple treatment groups were compared with control group by ANOVA and P values determined by post-hoc Bonferroni test.\nDose-dependence studies. NS-1619 was dissolved in 25% ethanol and diluted with PBS to obtain various concentrations for infusion. […]"}, "[2]": {"assay": "Arterial blood pressure monitored during intracarotid infusion", "format": "in vivo", "conditions": "rats; higher doses (100 and 110 μg/kg/min)", "procedure": "Dose-dependence studies. NS-1619 was dissolved in 25% ethanol and diluted with PBS to obtain various concentrations for infusion. NS-1619 was administered by intracarotid infusion (dose rates: 0, 13, 26.5, 53, 80, 100 and 110 μg kg^−1 min^−1; all at 53.3. μL/min) to RG2 glioma-bearing rats to determine a dose that produces increased permeability (Ki) of (^14C]-AIB, which was administered intravenously. Ki determined as described above. Physiological parameters were monitored during the experiments."}, "[3]": {"conditions": "cited from earlier work"}, "[4]": {"test_system": "brain tumor capillaries", "conditions": "intracarotid infusion, cited from earlier work"}},
  "note": "“Also recorded” adds a separate entry of the source. Structures can show the parent of a compound that is named as a salt.",
  "data": [
    {"compound": "O=c1[nH]c2cc(C(F)(F)F)ccc2n1-c1cc(C(F)(F)F)ccc1O", "note": "[NS-1619, 1,3-dihydro-1-[2-hydroxy-5-(trifluoromethyl)phenyl]-5-(trifluoromethyl)-2H-benzimidazol-2-one]", "values": [
      {"measurement": "Ki for [14C]AIB in RG2 tumor, NS-1619 26.5 μg kg^−1 min^−1 vs PBS with or without 5% ethanol", "setting": "[1]; 15 minutes, n=8, P<0.001", "value": "Increase of Ki"},
      {"measurement": "unidirectional transport constant Ki for [14C]α-aminoisobutyric acid (AIB) across the blood-tumor barrier", "setting": "[1]", "value": "significantly increased"},
      {"measurement": "dose-response of Ki for [14C]AIB in RG2 glioma capillaries", "setting": "[1]; intracarotid dose rates 0, 13, 26.5, 53, 80, 100 and 110 μg kg^−1 min^−1", "value": "increasing the dose of NS-1619 results in an increase"},
      {"measurement": "arterial blood pressure", "setting": "[2]", "value": "a significant drop in the arterial blood pressure"},
      {"measurement": "solubility in water", "setting": "[3]", "value": "not easily dissolved in water"}
    ]},
    {"compound": "CCCCC/C=C\\C\\C=C/C=C/C=C/[C@@H](SC[C@H](NC(=O)CC[C@H](N)C(=O)O)C(=O)NCC(=O)O)[C@@H](O)CCCC(=O)O", "note": "[LTC4, leukotriene C4]", "values": [
      {"measurement": "permeability in normal brain capillaries", "setting": "[4]", "value": "without affecting the permeability"},
      {"measurement": "permeability in brain tumor capillaries", "setting": "[4]; effect limited to small molecules", "value": "selectively increases the permeability"}
    ]},
    {"compound": "CC(N/C(=N\\C#N)Nc1ccncc1)C(C)(C)C", "note": "(racemic) [pinacidil, (±)-N-cyano-N′-4-pyridinyl-N″-(1,2,2-trimethylpropyl)-guanidine]", "values": [
      {"measurement": "solubility in ethanol", "setting": "[3]; ethanol", "value": 14, "unit": "mg/mL"},
      {"measurement": "solubility in water", "setting": "[3]", "value": "insoluble in water; also recorded: not easily dissolved in water"}
    ]},
    {"compound": "CC1=NS(=O)(=O)c2cc(Cl)ccc2N1", "note": "[diazoxide]", "values": [
      {"measurement": "solubility in water", "setting": "[3]", "value": "not easily dissolved in water"}
    ]},
    {"compound": "Nc1cc(N2CCCCC2)nc(N)[n+]1OS(=O)(=O)[O-]", "note": "[minoxidil sulfate]", "values": [
      {"measurement": "unidirectional transport constant Ki for [14C]α-aminoisobutyric acid (AIB) across the blood-tumor barrier", "setting": "[1]", "value": "significantly increased"},
      {"measurement": "solubility in water", "setting": "[3]", "value": "not easily dissolved in water"}
    ]},
    {"compound": "IBTX: specific KCa channel inhibitor, iberiotoxin (QFTDVDCSVSKECWSVCKDLFGVDRGKCMGKKCRCYQ; Iberiotoxin; UniProt P24663 1-37, looked up)", "values": [
      {"measurement": "brain-tumor barrier permeability of abnormal capillaries, IBTX alone", "setting": "[1]; IBTX 2.3 μg kg^−1 min^−1, 15 minutes, n=3", "value": "did not affect"},
      {"measurement": "effect of IBTX co-infusion on NS-1619-induced increase of permeability (Ki)", "setting": "[1]; IBTX 2.3 μg kg^−1 min^−1 with NS-1619 26.5 μg kg^−1 min^−1, n=3, P<0.001 vs NS-1619-treated group", "value": "decreased NS-1619-induced increase of permeability"}
    ]}
  ]
}
